Tests used:
[1] = tested on: black-tailed prairie dogs; settings: corn seeds treated with 0.5-4.0% anthraquinone; cited from earlier work
possums [2] = settings: 0.08% anthraquinone; cited from earlier work
Canada geese = settings: range printed jointly for Canada geese and red-winged blackbirds; cited from earlier work
ring-necked pheasants = settings: in vivo; cited from earlier work
California voles = assay: California vole concentration-response feeding experiment; format: in vivo, Microtus californicus Peale
cottontail rabbits = assay: Cottontail rabbit concentration-response feeding experiment; format: in vivo, Sylvilagus audubonii Baird
American crows = settings: in vivo; cited from earlier work
brown rats = settings: 0.04% and 0.08% anthraquinone; control baits 0.01-0.03% cinnamon, green carrots; cited from earlier work
[3] = tested on: Richardson's ground squirrels; assay: Richardson's ground squirrel concentration-response feeding experiment; format: in vivo, Urocitellus richardsonii Sabine
wild boar = settings: corn treated with 0.64% anthraquinone; cited from earlier work
female common voles = settings: wheat treated with 5% anthraquinone and chloroform; cited from earlier work
male common voles = settings: wheat treated with 15% anthraquinone and chloroform; cited from earlier work
male house mice = settings: wheat treated with 15% anthraquinone and chloroform; cited from earlier work
possums [4] = settings: 0.25% anthraquinone; cited from earlier work
common grackles = settings: in vivo; cited from earlier work
deer mice = assay: Deer mouse concentration-response feeding experiment; format: in vivo, Peromyscus maniculatus Wagner
red-winged blackbirds = settings: range printed jointly for Canada geese and red-winged blackbirds; cited from earlier work
black rats = settings: 0.1% and 0.25% anthraquinone; cited from earlier work

O=C1c2ccccc2C(=O)c2ccccc21 [anthraquinone, 9,10-anthraquinone]
repellency [1]: 24-37%
consumption of anthraquinone-treated baits relative to control baits (possums [2]): no different
predicted threshold concentration (Canada geese): 1,450-1,475 ppm
predicted threshold concentration (ring-necked pheasants): 10,450 ppm
anthraquinone dosage for observed threshold repellency (California voles; at 18,300 ppm anthraquinone (84% repellency), mean vole BM=38.1 g): 365.0±103.1 mg anthraquinone/kg BM
threshold concentration (California voles; can effectively repel voles from treated food): 1.3 % (wt/wt)
predicted threshold concentration (California voles; concentration needed to achieve 80% feeding repellency, non-linear regression, treated oats): about 13,400 ppm
repellency (California voles; whole oats treated with 0.25-2.0% anthraquinone (target, wt/wt; actual 2,050-18,300 ppm), test consumption (day 4) relative to pre-test consumption): 24-84%
repellency (California voles; whole oats treated with 18,300 ppm anthraquinone): 84%
anthraquinone dosage for observed threshold repellency (cottontail rabbits): 149.9±28.1 mg anthraquinone/kg BM
repellency (cottontail rabbits; oats treated with 4,790 ppm anthraquinone): 68%
repellency (cottontail rabbits; oats treated with 10,300 ppm anthraquinone): 75%
feeding repellency (cottontail rabbits; whole oats treated with 0.5-2.0% anthraquinone (target; actual 4,790-19,600 ppm)): 68-85%
feeding repellency (cottontail rabbits; whole oats treated with 19,600 ppm anthraquinone (target 2.0%)): 85%
predicted threshold concentration (American crows): 5,200 ppm
consumption of anthraquinone-treated baits relative to control baits (brown rats): less
feeding repellency ([3]; whole oats treated with 0.5-2.0% anthraquinone (target; actual 5,380-18,500 ppm)): 40-56%
repellency ([3]; whole oats treated with 18,500 ppm anthraquinone): 56%
less treated corn consumed than untreated corn (wild boar): 86.5%
less treated wheat consumed than wheat treated only with chloroform (female common voles): 47%
consumption of treated wheat relative to wheat treated only with chloroform (male common voles): no difference
consumption of treated wheat relative to wheat treated only with chloroform (male house mice): greater consumption
response to anthraquinone-treated baits (possums [4]): aversion
predicted threshold concentration (common grackles): 9,200 ppm
repellency (deer mice; whole oats treated with 0.25-2.0% anthraquinone (target; actual 2,820-19,900 ppm)): 19-52%
repellency (deer mice; whole oats treated with 10,800 ppm anthraquinone): 52%
predicted threshold concentration (red-winged blackbirds): 1,450-1,475 ppm
response to anthraquinone-treated baits (black rats): aversion

— patent publication US11252953B2, “Repellent and attractant composition for dichromatic animals” (The United States of America, Represented by the Secretary …, priority 2016, dated 2022)
